Source: patent US20230293630A1, “Coronavirus T Cell Epitopes and Uses Thereof” (priority 2020, published 2023)
Read-outs that look alike come from different tables or passages of the source.

Tested on: SARS-CoV-2-specific CD4+ T cells (OX40+CD137+) in PBMC
Assay type: cell-based, human
[1] = CD4+ T cell epitopes identified by AIM assay, share of donors responding
[2] = CD4+ T cell epitopes identified by AIM assay, sum of response per responding donor
[3] = CD4+ T cell epitopes identified by AIM assay, total response
[4] = CD4+ T cell epitopes identified by AIM assay, percent of tested donors responding
[5] = CD4+ T cell epitopes identified by AIM assay, total response summed over donors

Q: QEPKLGSLVVRCSFY was tested. Which “Frequency of response (%)” value [1] did it give?
A: 9%

Q: What about the “Magnitude by # of responding donors” value [2] of the same sequence?
A: 124

Q: What about the Sum of response [3] of the same sequence?
A: 124

Q: For QFAPSASAFFGMSRI, which “Frequency of response (%)” value [1] is on record?
A: 17%

Q: What about the “Magnitude by # of responding donors” value [2] of the same sequence?
A: 191

Q: What about the Sum of response [3] of the same sequence?
A: 381

Q: QFAYANRNRFLYIIK was tested. Which “Frequency of response (%)” value [1] did it give?
A: 20%

Q: And the “Magnitude by # of responding donors” value [2]?
A: 326

Q: And the Sum of response [3]?
A: 978

Q: Which “Frequency of response (%)” value [1] does the source give for QKKQQTVTLLPAADL here?
A: 7%

Q: And the “Magnitude by # of responding donors” value [2]?
A: 712

Q: And the Sum of response [3]?
A: 712

Q: QMAYRFNGIGVTQNV was tested. Which “Frequency of response (%)” value [1] did it give?
A: 7%

Q: And the “Magnitude by # of responding donors” value [2]?
A: 160

Q: And the Sum of response [3]?
A: 160

Q: For QPYRVVVLSFELLHA, which “Frequency of response (%)” value [1] is on record?
A: 7%

Q: And the “Magnitude by # of responding donors” value [2]?
A: 183

Q: And the Sum of response [3]?
A: 183

Q: QRNFYEPQIITTDNT was tested. Which “Frequency of response (%)” value [1] did it give?
A: 7%

Q: What about the “Magnitude by # of responding donors” value [2] of the same sequence?
A: 302

Q: And the Sum of response [3]?
A: 302

Q: What does the source list for QSINFVRIIMRLWLC [SEQ ID NO 252]?
A: Frequency of response (%) [4]: 21%; Magnitude by # of responding donors [2]: 168; Sum of response [5]: 505

Q: With QYGDCLGDIAARDLI as the sequence, how does the “Frequency of response (%)” value [1] read?
A: 8%

Q: What about the “Magnitude by # of responding donors” value [2] of the same sequence?
A: 152

Q: And the Sum of response [3]?
A: 152

Q: Which results are given for RAMPNMLRIMASLVL?
A: Frequency of response (%) [1]: 7%; Magnitude by # of responding donors [2]: 144; Sum of response [3]: 144

Q: For RCSFYEDFLEYHDVR, which “Frequency of response (%)” value is on record?
A: 36%

Q: What about the “Magnitude by # of responding donors” value of the same sequence?
A: 174

Q: And the Sum of response?
A: 696

Q: Which “Frequency of response (%)” value [1] does the source give for RENNRVVISSDVLVN here?
A: 33%

Q: And the “Magnitude by # of responding donors” value [2]?
A: 170

Q: What about the Sum of response [3] of the same sequence?
A: 170

Q: How did the “Frequency of response (%)” value [1] turn out when RFASVYAWNRKRISN was run?
A: 27%

Q: What about the “Magnitude by # of responding donors” value [2] of the same sequence?
A: 241

Q: And the Sum of response [3]?
A: 722

Q: RFYFYTSKTTVASLI was tested. Which “Frequency of response (%)” value [1] did it give?
A: 8%

Q: And the “Magnitude by # of responding donors” value [2]?
A: 126

Q: What about the Sum of response [3] of the same sequence?
A: 126

Q: With RGHLRIAGHHLGRCD as the sequence, how does the “Frequency of response (%)” value [1] read?
A: 42%

Q: And the “Magnitude by # of responding donors” value [2]?
A: 472

Q: What about the Sum of response [3] of the same sequence?
A: 2359

Q: With RLFARTRSMWSFNPE as the sequence, how does the “Frequency of response (%)” value [1] read?
A: 8%

Q: What about the “Magnitude by # of responding donors” value [2] of the same sequence?
A: 141

Q: What about the Sum of response [3] of the same sequence?
A: 141

Q: Which results are given for RLWLCWKCRSKNPLL?
A: Frequency of response (%) [1]: 7%; Magnitude by # of responding donors [2]: 290; Sum of response [3]: 290

Q: Which results are given for RPLLESELVIGAVIL?
A: Frequency of response (%) [1]: 8%; Magnitude by # of responding donors [2]: 183; Sum of response [3]: 183

Q: Which “Frequency of response (%)” value [1] does the source give for RRGPEQTQGNFGDQE here?
A: 8%

Q: And the “Magnitude by # of responding donors” value [2]?
A: 518

Q: What about the Sum of response [3] of the same sequence?
A: 518

Q: RVAGDSGFAAYSRYR was tested. Which “Frequency of response (%)” value [1] did it give?
A: 15%

Q: And the “Magnitude by # of responding donors” value [2]?
A: 139

Q: What about the Sum of response [3] of the same sequence?
A: 278

Q: RYLALYNKYKYFSGA was tested. Which “Frequency of response (%)” value [1] did it give?
A: 15%

Q: And the “Magnitude by # of responding donors” value [2]?
A: 708

Q: What about the Sum of response [3] of the same sequence?
A: 1415

Q: Which “Frequency of response (%)” value [1] does the source give for SALEPLVDLPIGINI here?
A: 9%

Q: And the “Magnitude by # of responding donors” value [2]?
A: 167

Q: What about the Sum of response [3] of the same sequence?
A: 167

Q: SASFSTFKCYGVSPT was tested. Which “Frequency of response (%)” value [1] did it give?
A: 8%

Q: And the “Magnitude by # of responding donors” value [2]?
A: 294

Q: And the Sum of response [3]?
A: 294

Q: How did the “Frequency of response (%)” value [1] turn out when SDVLYQPPQTSITSA was run?
A: 8%

Q: What about the “Magnitude by # of responding donors” value [2] of the same sequence?
A: 394

Q: What about the Sum of response [3] of the same sequence?
A: 394

Q: SELVIGAVILRGHLR was tested. Which “Frequency of response (%)” value did it give?
A: 33%

Q: And the “Magnitude by # of responding donors” value?
A: 141

Q: What about the Sum of response of the same sequence?
A: 563

Q: What does the source list for SEMVMCGGSLYVKPG?
A: Frequency of response (%) [1]: 6%; Magnitude by # of responding donors [2]: 217; Sum of response [3]: 217

Q: Which “Frequency of response (%)” value [4] does the source give for SFIEDLLFNKVTLAD here?
A: 17%

Q: And the “Magnitude by # of responding donors” value [2]?
A: 406

Q: What about the Sum of response [5] of the same sequence?
A: 812

Q: For SFLAHIQWMVMFTPL, which “Frequency of response (%)” value [1] is on record?
A: 8%

Q: And the “Magnitude by # of responding donors” value [2]?
A: 554

Q: And the Sum of response [3]?
A: 554

Q: SFLGRYMSALNHTKK was tested. Which “Frequency of response (%)” value [1] did it give?
A: 9%

Q: And the “Magnitude by # of responding donors” value [2]?
A: 219

Q: And the Sum of response [3]?
A: 219

Q: Which results are given for SFNPETNILLNVPLH?
A: Frequency of response (%) [1]: 8%; Magnitude by # of responding donors [2]: 123; Sum of response [3]: 123

Q: SGFAAYSRYRIGNYK was tested. Which “Frequency of response (%)” value did it give?
A: 31%

Q: What about the “Magnitude by # of responding donors” value of the same sequence?
A: 185

Q: What about the Sum of response of the same sequence?
A: 739

Q: With SGHNLAKHCLHVVGP as the sequence, how does the “Frequency of response (%)” value [1] read?
A: 8%

Q: What about the “Magnitude by # of responding donors” value [2] of the same sequence?
A: 148

Q: What about the Sum of response [3] of the same sequence?
A: 148

Q: How did the “Frequency of response (%)” value [1] turn out when SHRFYRLANECAQVL was run?
A: 6%

Q: What about the “Magnitude by # of responding donors” value [2] of the same sequence?
A: 535

Q: And the Sum of response [3]?
A: 535

Q: Which “Frequency of response (%)” value [1] does the source give for SIAIPTNFTISVTTE here?
A: 8%

Q: And the “Magnitude by # of responding donors” value [2]?
A: 274

Q: And the Sum of response [3]?
A: 274

Q: For SIVAGGIVAIVVTCL, which “Frequency of response (%)” value [1] is on record?
A: 9%

Q: What about the “Magnitude by # of responding donors” value [2] of the same sequence?
A: 109

Q: What about the Sum of response [3] of the same sequence?
A: 109

Q: Which “Frequency of response (%)” value [4] does the source give for SLLIVNNATNVVIKV here?
A: 9%

Q: And the “Magnitude by # of responding donors” value [2]?
A: 164

Q: And the Sum of response [5]?
A: 164

Q: For SLQSCTQHQPYVVDD, which “Frequency of response (%)” value [1] is on record?
A: 9%

Q: What about the “Magnitude by # of responding donors” value [2] of the same sequence?
A: 1222

Q: What about the Sum of response [3] of the same sequence?
A: 1222

Q: What does the source list for SNFRVQPTESIVRFP?
A: Frequency of response (%) [4]: 9%; Magnitude by # of responding donors [2]: 243; Sum of response [5]: 243
